Read-outs that look alike come from different tables or passages of the source. Marks after values point to notes of the source that are not given here.
Columns and labels:
[1] = type: physicochemical; conditions: SGF with pepsin, pH 1.5, 37° C.; for Condition 1 Conversion (%): 0.5 mM; for Condition 1 Conversion (%), first value of pair x/y: first of two values; for Condition 1 Conversion (%), second value of pair x/y: second of two values
[2] = type: physicochemical; conditions: DI water, 25° C., 0.5 mM

| Compound | Condition 1 Conversion (%) ([1]; time 1 min) | Condition 1 Conversion (%) ([1]; time 5 min) | Condition 1 Conversion (%) ([1]; time 30 min) | Condition 1 Conversion (%) ([1]; time 1 h) | Condition 1 Conversion (%) ([1]; time 4 h) | Condition 1 Conversion (%) ([1]; time 24 h) | Condition 2 Conversion (%) ([2]; time 1 min) | Condition 2 Conversion (%) ([2]; time 5 min) | Condition 2 Conversion (%) ([2]; time 30 min) | Condition 2 Conversion (%) ([2]; time 1 h) | Condition 2 Conversion (%) ([2]; time 4 h) | Condition 2 Conversion (%) ([2]; time 24 h) | also measured |
| --- | --- | --- | --- | --- | --- | --- | --- | --- | --- | --- | --- | --- | --- |
| COc1ccc([C@@]23CCC(=NNCc4cccnc4)C[C@@H]2N(C)CC3)cc1OC [Compound 370, N-[[(3aS,7aS)-3a-(3,4-dimethoxyphenyl)-1-methyl-2,3,4,5,7,7a-hexahydroindol-6-ylidene]amino]-1-(3-pyridyl)methanamine] | 20 | 40 | 100 | 100 | 100 | 100 | 0% | 0% | 0 | 10 | 30 | 70 |  |
| COc1ccc([C@@]23CC/C(=N\NC(=O)Nc4ccc(N5CCN(C)CC5)cc4)C[C@@H]2N(C)CC3)cc1OC [Compound 257, 1-[[(3aS,7aS)-3a-(3,4-dimethoxyphenyl)-1-methyl-2,3,4,5,7,7a-hexahydroindol-6-ylidene]amino]-3-[4-(4-methylpiperazin-1-yl)phenyl]urea] | 4.6 | 54.1 | 100 | 100 | 100 | 100 | 0% | 0% | 5 | 8 | 30 | 95 |  |
| COc1ccc([C@@]23CC/C(=N\NC(=O)CCC(=O)O)C[C@@H]2N(C)CC3)cc1OC [Compound 245, 4-[2-[(3aS,7aS)-3a-(3,4-dimethoxyphenyl)-1-methyl-2,3,4,5,7,7a-hexahydroindol-6-ylidene]hydrazino]-4-oxo-butanoic acid] | 60 | 100 | 100 | 100 | 100 | 100 | 25% | 35% | 50 | 100 | 100 | 100 |  |
| COc1ccc([C@@]23CCC(=NNC(=O)C45CC6CC(CC(C6)C4)C5)C[C@@H]2N(C)CC3)cc1OC [Compound 271, N-[[(3aS,7aS)-3a-(3,4-dimethoxyphenyl)-1-methyl-2,3,4,5,7,7a-hexahydroindol-6-ylidene]amino]adamantane-1-carboxamide] | 100 | 100 | 100 | 100 | 100 | 100 | 78.3% | 70.3% | 82 | 85.7 | 94.5 | 100 |  |
| COc1ccc([C@@]23CCC(=NNC(=O)Nc4cccc(O)c4)C[C@@H]2N(C)CC3)cc1OC [Compound 251, 2-[(3aS,7aS)-3a-(3,4-dimethoxyphenyl)-1-methyloctahydro-6H-indol-6-ylidene)-N-(3-hydroxyphenyl)hydrazine-1-carboxamide] | 6.91 | 100 | 100 | 100 | 100 | 100 | 0% | 0% | 0 | 0 | 0 | 15.18 |  |
| COc1ccc([C@@]23CCC(=NNC(=O)CC[C@H](NC(=O)c4ccc(NCc5cnc6nc(N)nc(O)c6n5)cc4)C(=O)O)C[C@@H]2N(C)CC3)cc1OC [Compound 172, (2S)-5-[2-[(3aS,7aS)-3a-(3,4-dimethoxyphenyl)-1-methyl-2,3,4,5,7,7a-hexahydroindol-6-ylidene]hydrazino]-2-[[4-[(2-amino-4-hydroxy-pteridin-6-yl)methylamino]benzoyl]amino]-5-oxo-pentanoic acid] | 100 | 100 | 100 | 100 | 100 | 100 | 50* % | 70* % | 100 | 100 | 100 | 100 |  |
| COc1ccc([C@@]23CCC(=NOCC(=O)OC(C)(C)C)C[C@@H]2N(C)CC3)cc1OC [Compound 202, tert-butyl 2-[[(3aS,7aS)-3a-(3,4-dimethoxyphenyl)-1-methyl-2,3,4,5,7,7a-hexahydroindol-6-ylidene]amino]oxyacetate] | 0 | 0 | 0 |  |  |  | 0% | 0% | 0 | 0 | 0 | 0 | Condition 1 Conversion (%), first value of pair x/y ([1]; time 1 h): 1.12%; Condition 1 Conversion (%), second value of pair x/y ([1]; time 1 h): 0%; Condition 1 Conversion (%), first value of pair x/y ([1]; time 4 h): 3.01%; Condition 1 Conversion (%), second value of pair x/y ([1]; time 4 h): 6.42%; Condition 1 Conversion (%), first value of pair x/y ([1]; time 24 h): 64.4%; Condition 1 Conversion (%), second value of pair x/y ([1]; time 24 h): 6.42% |
| COc1ccc([C@@]23CC/C(=N\OC(C)(C)OC)C[C@@H]2N(C)CC3)cc1OC [Compound 204, (E,3aS,7aS)-3a-(3,4-dimethoxyphenyl)-N-(1-methoxy-1-methyl-ethoxy)-1-methyl-2,3,4,5,7,7a-hexahydroindol-6-imine] |  |  |  |  |  |  | 0% | 0% | 0 | 0 | 0 | 0 | Condition 1 Conversion (%), first value of pair x/y ([1]; time 1 min): 100%; Condition 1 Conversion (%), second value of pair x/y ([1]; time 1 min): 0%; Condition 1 Conversion (%), first value of pair x/y ([1]; time 5 min): 100%; Condition 1 Conversion (%), second value of pair x/y ([1]; time 5 min): 0%; Condition 1 Conversion (%), first value of pair x/y ([1]; time 30 min): 0%; Condition 1 Conversion (%), second value of pair x/y ([1]; time 30 min): 100%; Condition 1 Conversion (%), first value of pair x/y ([1]; time 1 h): 0%; Condition 1 Conversion (%), second value of pair x/y ([1]; time 1 h): 100%; Condition 1 Conversion (%), first value of pair x/y ([1]; time 4 h): 0%; Condition 1 Conversion (%), second value of pair x/y ([1]; time 4 h): 100%; Condition 1 Conversion (%), first value of pair x/y ([1]; time 24 h): 0%; Condition 1 Conversion (%), second value of pair x/y ([1]; time 24 h): 100% |
| COc1ccc([C@@]23CCC(=NOCCO)C[C@@H]2N(C)CC3)cc1OC [Compound 203, 2-[[(3aS,7aS)-3a-(3,4-dimethoxyphenyl)-1-methyl-2,3,4,5,7,7a-hexahydroindol-6-ylidene]amino]oxyethanol] | 0 | 0 | 0 | 0 | 18.58 | 26.48 | 0% | 0% | 0 | 0 | 0 | 0 |  |
| COc1ccc([C@@]23CCC(=NNc4cnccn4)C[C@@H]2N(C)CC3)cc1OC [Compound 365, N-[[(3aS,7aS)-3a-(3,4-dimethoxyphenyl)-1-methyl-2,3,4,5,7,7a-hexahydroindol-6-ylidene]amino]pyrazin-2-amine] | 0 | 8.9 | 47.1 | 77.4 | 94.1 | 100 | 0% | 0% | 10.11 | 11.33 | 12.6 | 17.4 |  |
| COc1ccc([C@@]23CCC(=NOc4ccccc4)C[C@@H]2N(C)CC3)cc1OC [Compound 207, (3aS,7aS)-3a-(3,4-dimethoxyphenyl)-1-methyl-N-phenoxy-2,3,4,5,7,7a-hexahydroindol-6-imine] | 0 | 0 | 0 | 0 | 1.5 | 7.9 | 0% | 0% | 0 | 0 | 0 | 0 |  |

— patent US20250051277A1, “DELIVERY OF THERAPEUTIC ALKALOID COMPOUNDS” (Sensorium Therapeutics, Inc., priority 2021, published 2025)
